From patent US4120947A, “Xanthine compounds and method of treating bronchospastic and allergic diseases” (priority 1976, dated 1978)
Entries after “also recorded” stand apart in the source; their conditions may differ. Read-outs that look alike come from different tables or passages of the source.

What was measured:
[1] = test system: histamine-induced bronchoconstriction in the guinea pig; test: BD: bronchodilator activity against histamine-induced bronchoconstriction in the guinea pig; details: for inhibition in vivo at 10 mg/kg / inhibition in vivo at 20 mg/kg: Cavia porcellus, po, read-out: BD (guinea pig), % protection
From the text: BD Bronchodilator activity evaluated against histamine-induced bronchoconstriction in the guinea pig, and expressed as % protection at the stated time interval (in minutes and hours) post-drug against histamine agonist. Doses are expressed in milligrams per kilogram of body weight (mpk) per os (po) or intraperitoneally (ip).
A modification of the method of Siegmund. O.H., et al., J. Pharmacol. and Exp. Therap. 90:254-9, 1947, is used. Healthy guinea pigs weighing from 250 to 300 grams are placed four at a time and separated by wiring screening in an 11 liter plastic chamber, at the time of peak activity following drug administration. The challenge consists of histamine diphosphate (1% solution) aerosolized in a de Vilbiss -40 nebulizer at 200 mm Hg. Times for prostration are recorded.
Per cent protection is calculated as follows: [formula] wherein the times are measured in seconds.
In interpreting the BD data it should be noted that a dose giving less than 40-50% protection is not considered useful. Differences in percent protection of less than 10% are probably not significant.

[2] = test system: histamine-induced bronchoconstriction in the dog; test: CP: cardiopulmonary activity against histamine-induced bronchoconstriction in the dog; assay type: in vivo; details: histamine challenge
From the text: Pretreatment with bronchodilator drugs aims to block the bronchospastic response to histamine. Each dog serves as its own control.

[3] = test system: guinea pig tracheal chain preparation; test: SP: spasmolytic activity in vitro, guinea pig tracheal chain preparation; details: Cavia porcellus, read-out: SP in vitro C, molar concentration required to produce maximum relaxation
From the text: SP Spasmolytic activity evaluated in vitro using guinea pig tracheal chain preparation, and expressed as the molar (M) concentration required to produce maximum relaxation. The method used in that of Castillo and de Beer, J. Pharmac. Expt. Therap. 90, 104, 1947.

[4] = test system: passive cutaneous anaphylaxis in the rat; test: PCA: passive cutaneous anaphylaxis in the rat; assay type: in vivo
Procedure: PCA Antianaphylactic activity against passive cutaneous anaphylaxis in the rat, expressed as % protection against antigen-induced wheal formation.
The method used is that of Ogilvie, B. M., Immunology 12, 113-131 (1967). Reaginic […] antibodies develope in the rat following subcutaneous injection of Nippostrongylus brasiliensis larvae. Antisera, collected 28 days later are injected subcutaneously into new rats.

LD50 mouse = assay type: in vivo; details: in vivo, po
Procedure: (§1) The LD50 was determined in three species, the mouse (male, 18-25 g), the albino rat (female, 150-200 g) and the albino guinea pig (male 180-280 g) by oral administration and in the albino rat by intraperitoneal administration. The animals are fasted overnight prior to testing. Six groups of ten animals are used; five groups are dosed with the test substance, the sixth group serves as a control and receives the drug vehicle at the highest test concentration. The compounds were administered in a 0.5% gum tragacanth solution in distilled water using a constant logarithmic increment in dose. Dose volume ranged from […].
(§2) The animals were housed five per cage (rat and guinea pig) or ten per cage (mouse) with free access to food and water. The number of dead animals was recorded daily for five consecutive days. The total mortality per group of ten for each dose level was recorded and LD50 with Confidence Limits calculated according to the method described by Weil, C.

mouse = test: LD50 mouse; assay type: in vivo
Procedure: as §1, §2

in vivo = test: in vivo
Procedure: as §1, §2

albino rat = test: in vivo
Procedure: as §1, §2

[5] = test system: antigen-induced bronchconstriction in rats sensitized with N. brasliensis; test: AA: antiallergy (anti-anaphylactic) activity against antigen-induced bronchoconstriction in sensitized rats
From the text: The animals are subdivided into control and test groups. Test animals receive a drug either orally, intraperitoneally or intravenously and are challenged with intravenous antigen at fixed time intervals after dosing. Antigen-induced increases in tracheal pressure are monitored and reflect the extent of bronchoconstriction.

[6] = guinea pig, comparison with corresponding compound
[7] = Rattus norvegicus, ip, 1 h, read-out: AA (rat), % protection
[8] = Rattus norvegicus, po, 1 h, read-out: AA (rat), % protection

SMILES: CCC(C)Cn1c(=O)n(C)c(=O)c2c1nc(C)n2C(=O)OC (stereo not shown) [Compound 4387, 1,8-dimethyl-3-(2-methyl-1-butyl)-7-carbomethoxyxanthine]
- inhibition in vivo at 10 mg/kg ([1]; 0.5 h): 44%
- inhibition in vivo at 10 mg/kg ([1]; 1 h): 87%
- inhibition in vivo at 20 mg/kg ([1]; 1 h): 94%
- inhibition in vivo at 10 mg/kg ([1]; 6 h): 59%
- inhibition in vivo at 20 mg/kg ([1]; 6 h): 92%
- inhibition in vivo at 10 mg/kg ([1]; 10 h): 37%
- bronchodilator effectiveness, in words [1, 6]: shows greater activity; also recorded: about as effective as the corresponding 3-isobutyl compound (4390)
- onset and duration of action, in words [1, 6]: effective at lower doses and for longer duration
- cardiopulmonary / bronchodilator activity in the dog, in words [2]: significantly reduce the decrease in pulmonary compliance and increase in pulmonary resistance due to histamine administration; also recorded: about as effective as the corresponding 3-isobutyl compound (4390)
- EC (maximum relaxation) [3]: 1000 µM
- Wheal Diameter, % Δ ([4]; 10 mg/kg po): 41%
- Wheal Diameter, Response (Mean ± S.E.M.) ([4]; 10 mg/kg po): 1.41 ± 0.17 cm
- Wheal Intensity, % Δ ([4]; 10 mg/kg po): 33%
- Wheal Intensity, Response (Mean ± S.E.M.) ([4]; 10 mg/kg po): 1.65 ± 0.20
- Wheal Diameter, % Δ ([4]; 20 mg/kg po): 57%
- Wheal Diameter, Response (Mean ± S.E.M.) ([4]; 20 mg/kg po): 0.81 ± 0.13 cm
- Wheal Intensity, % Δ ([4]; 20 mg/kg po): 38%
- Wheal Intensity, Response (Mean ± S.E.M.) ([4]; 20 mg/kg po): 1.18 ± 0.21
- antiallergy activity, in words ([4]; rat passive cutaneous anaphylaxis): effective antiallergy agents
- LD50 (LD50 mouse): 54.9 mg/kg
- lethality relative to 4390 (mouse): about one-half
- LD50 (in vivo; guinea pig, po): 27.4 mg/kg
- LD50 (in vivo; in vivo, rat, ip): 18.3 mg/kg
- LD50 (in vivo; in vivo, rat, po): 60 mg/kg
- lethality relative to 4390 (albino rat): about one-half
- inhibition in vivo at 5 mg/kg [5, 7]: 55%
- inhibition in vivo at 75 mg/kg [5, 7]: 70%
- inhibition in vivo at 2.5 mg/kg [5, 8]: 72%
- inhibition in vivo at 5 mg/kg [5, 8]: 68%
- inhibition in vivo at 10 mg/kg [5, 8]: 57%
- antiallergy effectiveness, in words ([5]; rat, comparison with 4390): about as effective as the corresponding 3-isobutyl compound (4390)
